Test results taken from patent US20210121438A1, “METHODS FOR TREATING OR PREVENTING CONFORMATION DISEASES AND METHODS FOR DRUG SCREENING” (GARAGE BRAIN SCIENCE CO., LTD, priority 2018, published 2021).
Where a SMILES comes first, the peptide text is derived from it. The star is where a group is joined. Cbz = O=C(OCc1ccccc1)*

Assays:
Format in all cases: cell-based
[1] = tested on: GFP-TDP-43-IIPLD inclusion-expressing 293T cells; experiment: TDP-43-IIPLD misfolded aggregates in transfected 293T cells (microscopy)
Procedure: Cell Culture and Drug Treatment: 293T cells were used throughout the experimental studies. 293T cells were grown in Dulbecco's modified Eagle's medium (DMEM)/F12, which was supplemented with 10% fetal bovine serum, 1% penicillin/streptomycin and 1% L-glutamate. Primary cultures of rat hippocampal neurons were prepared from embryonic day 17 rat embryos as previously described by (Wang et al, TDP-43, the signature protein of FTLD-U, is a neuronal activity-responsive factor. J. Neurochem. 105, 79T-806 (2008)). All procedures for handling the rat were carried out in accordance with the guidelines approved by the Institutional Animal Care and Utilization Committee, Academia Sinica. Hippocampal cells were plated on poly-1-lysine-coated coverslides at low density (10,000 cells per cm2) and cultured in the neurobasal medium/B27 (Invitrogen). The 293T cells were transfected using the calcium phosphate protocol according to the manufacturer's instructions and as previously described by Wang et al. (Wang et al., ProcNatlAcadSci USA. 99, 13583-13588 (2002). All of the plasmid constructs were described in Wang et al., Nature Communication, 2012). 293T cells (1×10^5) were seeded in each well of a six-well plate and incubated overnight in a 37° C. incubator with 5% CO2. To determine the effects of off-pathway stabilizers on the reduction of pathological-like aggregates, the cells were treated with baicalein and EGCG for 12, 24, or 48 h with the indicated concentrations (25 or 50 μM).
GFP-TDP-43 pathological-like (GFP-TDP-43-IIPLD) inclusion-expressing 293T cells were treated with or without 50 μM baicalein for 12 h following microscopic analysis and Western blotting validation. […] (FIG. 2c).

[2] = tested on: TDP-43-mediated CFTR exon 9 skipping; experiment: Alternative splicing assay (in vivo splicing, CFTR minigene); settings: EGCG
Procedure: Alternative Splicing Assay: TDP-43-mediated CFTR exon 9 skipping assays were performed as previously described. Briefly, cells were cotransfected with TDP-43 plasmid, hCF-(TG)13(T)5 minigenes and the indicated plasmids, including VCP/p97 wt, VCP/p97 QQ, HSPB1, lamin A or progeria, or HSPB1 siRNA. Total RNA of transfectanted cells was isolated by TRIzol reagent (Invitrogen), and RT-PCR was carried out by Superscript III (Invitrogen) using specific primers to amplify exons 8-10 of CFTR according to the manufacturer's protocol. The relative amounts of cDNA were validated on 1.3% agarose gels. […]

TDP-43 polymers = target: T1, TDP-43 polymers (Homo sapiens, UniProt Q13148); experiment: Western blotting of TDP-43 polymers in nuclear, cytosolic and urea fractions; settings: EGCG-treated cells
T1 construct: endogenous in cells; host or cells: 293T
T1 sequence (Q13148 whole entry): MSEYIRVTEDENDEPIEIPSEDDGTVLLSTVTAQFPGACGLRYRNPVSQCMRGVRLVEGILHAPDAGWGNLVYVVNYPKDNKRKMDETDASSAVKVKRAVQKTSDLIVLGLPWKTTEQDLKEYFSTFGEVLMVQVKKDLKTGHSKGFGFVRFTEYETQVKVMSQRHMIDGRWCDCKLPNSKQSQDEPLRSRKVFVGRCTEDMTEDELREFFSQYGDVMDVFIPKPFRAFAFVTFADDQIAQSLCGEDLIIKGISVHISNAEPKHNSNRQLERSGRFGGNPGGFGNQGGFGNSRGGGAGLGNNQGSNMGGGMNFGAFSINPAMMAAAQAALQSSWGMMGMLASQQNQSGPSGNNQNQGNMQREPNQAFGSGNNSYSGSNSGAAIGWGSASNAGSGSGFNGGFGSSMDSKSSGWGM
Procedure: Solubility Assay of TDP-43 and p53: Cells with or without transfection of TDP-43-FL or TDP-43-Q303P were lysed with RIPA buffer (50 mM Tris, 150 mM NaCl, 1 mM EDTA, 1% NP-40, pH 7.4), and the lysate was further fractionated by centrifugation at 16,000 g for 5 min at 4° C. The insoluble pellets were then dissolved in 8 M urea/50 mM Tris (pH 8.0). The proteins were identified by Western blotting using a polyclonal TDP-43 antibody or a monoclonal p53 antibody.
TDP-43 proteinopathies in FTLD/ALS with the VCP/97 mutation R155H have been characterized. The VCP/97 mutation R155H alters the functions of VCP/97, redistributes TDP-43 to the cytosol, and leads to form-insoluble aggregates of TDP-43.

[3] = tested on: p53 aggregates in 293T cells; experiment: p53 aggregates in 293T cells / p53 strains (immunofluorescence with p53 antibody)
Procedure: Immunohistochemistry: Fluorescence staining was performed as described previously (Wang et al., 2012). Cells were transfected with or without plasmids or siRNAs and grown for 24 to 48 hr. Cells were fixed with 3.7% paraformaldehyde in PBS at RT for 15 min and then permeabilized with 0.1% Triton X-100. The fixed cells were incubated with primary antibodies at RT for 2 hr followed by incubation with Cy2- or Cy3-labeled secondary antibodies (Molecular Probes). Slides were mounted using Vectashield DAPI H-1200 (Vector). Cellular fluorescence images were collected using an LSM710 META laser-scanning confocal microscope (Zeiss).
We observed a striking degree of heterogeneity among p53 aggregates in the cytosol of 293T cells by immunofluorescence with a p53 antibody, including long fibers (5-10 μm), short fibers (1.6-3.2 μm) and punctate aggregates (0.5-1 μm in diameter) (FIG. 16a, arrows). The length of the p53 fibers and p53 aggregates were analyzed (FIG. 16b). […] To determine whether these heterogeneous p53 amyloid patterns are inherited or are random conversions, we subcultured and isolated single colonies from heterogeneous pools of cells. […] We obtained four phenotypes shown in FIG. 16a, including long and short fibers, puncta, and diffuse nuclear staining, and these phenotypes were stably propagated (FIG. 16e). We termed these p53 phenotypes of the isolated strains as follows: p53 [L] (Long fibers), p53 [S] (Short fibers), p53 [P] (Puncta) and p53-NVA (No Visible Aggregates).
Additionally, we treated 293T cells with an Aβ amyloid disassembling agent, baicalein, following immunofluorescence staining with anti-p53 antibodies.

four p53 strains = experiment: Cell viability of the four p53 strains under stress (MTT assay)
Description: Our clonally expanded system provided an excellent cellular model to precisely investigate the oncogenicity of strain-specific p53 amyloid conformations in vivo. We analyzed cell growth of the four p53 amyloid strains by examining cell cycle flow and counting doubling time (FIGS. 17a and 17b). […] In contrast to the toxic amyloids observed in neurodegenerative contexts, p53 amyloids appear to promote cell growth. Additionally, to assess the stress response, the four cell strains were challenged with spermidine and H2O2 (FIGS. 17c and 17d). Cell viability was impaired under all stress conditions. […] To further identify key pathophysiology pathways involved in tumorigenesis of p53 aggregates' gain-of-function, we performed a serial screen by western blotting and compared the expression of cancer-related proteins in the four strains. […] Additionally, a group of epigenetic regulators altered their expression in present of p53 aggregates. […] Together with the horizontal transmissibility shown in FIG. 16, the three endogenous p53 aggregates were able to switch into malignant cancer cells including activating EMT, increasing cancer stemness, and dramatically altering epigenetic regulators, and the strain-specific p53 amyloids can propagate oncogenic inheritance via a protein-based mechanism.

## O=C(O[C@@H]1Cc2c(O)cc(O)cc2O[C@@H]1c1cc(O)c(O)c(O)c1)c1cc(O)c(O)c(O)c1 [EGCG]
[1]
  TDP-43-IIPLD aggregates, statistical analysis of dose dependence: disassembled the formed TDP-43 misfolded aggregates in a dose-dependent manner
[1]; 50 μM
  assembly of TDP-43-IIPLD proteinaceous nucleating particles: reduce TDP-43 proteinaceous nucleating particles
[2]
  correction of TDP-43 dysfunction on mRNA processing: insufficient to correct TDP-43 dysfunction on mRNA processing
TDP-43 polymers
  TDP-43 species: increased the level of the 130 kD TDP-43 instead of the high-order TDP-43 polymers

## OO [H2O2]
[3]; H2O2 treatment
  p53 aggregate formation: induced p53 aggregate formation
Four p53 strains; four p53 strains challenged with H2O2
  cell viability: impaired

## CC(C)C[C@@H](C=O)NC(=O)[C@H](CC(C)C)NC(=O)[C@H](CC(C)C)NC(=O)OCc1ccccc1 [MG132] (Cbz-Leu-Leu-Leu-aldehyde)
[3]; 293T cells, MG132
  form of p53 fibers: converted the three types of p53 fibers into irregular inclusions
  p53 aggregates: significantly increased p53 aggregates

## NCCCCNCCCN [spermidine]
Four p53 strains; four p53 strains challenged with spermidine
  cell viability: impaired
